Experimental data published in publication PMC12668308, “A Novel Antimalarial Agent that Inhibits Protein Synthesis in Plasmodium falciparum” (Angewandte Chemie (International Ed. in English), 2025).

Key:
Assay in all cases: [3H]-hypoxanthine incorporation assay
Assay type in all cases: cell-based, Plasmodium falciparum
[1] = system: Dd2 MMV390048 (Dd2 + pfpI4k)
Experimental: (§1) ^[a]72-h [^3H] hypoxanthhine incorporation assay. Data is expressed as mean±s.d..
(§2) P. falciparum asexual blood stage parasites were cultured in human red blood cells (RBC, Blutspende SRK, Zurich) at a hematocrit of 5% in RPMI 1640 medium. The RPMI 1640 medium (ThermoFisher Scientific #51800−043) was supplemented with the following: 24 mM NaHCO3 (pH 7.3, Sigma-Aldrich #31437−500G-R), 25 mM Hepes (Sigma-Aldrich #H4034−500G), 0.36 mM hypoxanthine (Sigma-Aldrich # H9377−25G), 100 µg mL^-1 neomycin (Sigma-Aldrich #N6386−100G) and 0.5% Albumax II (Thermo Fisher #11021−045). Additionally, 2 mM choline chloride (279 mg/L, Sigma-Aldrich #C7527−100G) was added to the culture to block the induction of sexual commitment as described. ^[31^] The RPMI 1640 medium and components were dissolved in water (Milli-Q purified), stirred for at least 3 h, and then sterile filtered (0.22 μm pore size) with a bottle top filter (Corning # 431118). Parasite cultures were maintained in an atmosphere of 3% O2, 4% CO2, and 93% N2 in air-tight chambers at 37 °C. The [^3H]-hypoxanthine incorporation assay was used to test compound activity in the specific parasite lines as described.^[32^] Briefly, compounds were dissolved in DMSO (10 mM) and diluted in a hypoxanthine-free culture medium. A limiting dilution was performed over a 64-fold range (6-step twofold dilution) in a 96-well plate in duplicates. For every starting concentration, a limiting dilution was performed over a 64-fold range (6-step twofold dilution) in a 96-well plate in two biological duplicates. Parasites were added at 100 µL to each well containing the compound to obtain a final parasitemia of 0.3% and haematocrit of 1.25%. The plates were incubated for 48 h before 0.25 µCi of [^3H]-hypoxanthine was added per well for an additional 24 h. Parasites were harvested on a glass-fiber filter with a Microbeta FilterMate cell harvester (Perkin Elmer, Waltham, USA) and radioactivity was counted using a MicroBeta2 liquid scintillation counter (Perkin Elmer, Waltham, US). The results were recorded, processed by subtraction of the mean background signal obtained from the uninfected RBC controls and expressed as percentage of untreated controls. The fifty percent inhibitory concentration (IC50) was calculated by using nonlinear, four parameter (variable slope) curve fitting as described ^[33^] after importing into GraphPad Prism (version 8.3.0).

[2] = system: Dd2 DSM265 (Dd2 + pfdhodh)
Experimental: as §1, §2

[3] = system: Dd2 NITD609 (Dd2 + pfatp4)
Experimental: as §1, §2

[4] = system: Dd2 GNF156 (Dd2 + pfcarl)
Experimental: as §1, §2

[5] = Plasmodium falciparum, DD2, 72 h

## CN1CCN(Cc2ccc(O)c(NC(=O)c3cccc(Oc4cc(C(F)(F)F)ccn4)c3)c2)CC1 [Compound 31, N-(2-hydroxy-5-((4-methylpiperazin-1-yl)methyl)phenyl)-3-((4-(trifluoromethyl)pyridin-2-yl)oxy)benzamide]
[1]; Dd2 MMV390048
  IC50 fold shift relative to Dd2 strain: 0.5
[1]; [5]
  IC50: 4.8 ± 1.5 nM
[2]; Dd2 DSM265
  IC50 fold shift relative to Dd2 strain: 0.3
[2]; Plasmodium falciparum, 72 h
  IC50: 2.8 ± 0.5 nM
[3]; Dd2 NITD609
  IC50 fold shift relative to Dd2 strain: 0.7
[3]; [5]
  IC50: 6.2 ± 2.5 nM
[4]; Dd2 GNF156
  IC50 fold shift relative to Dd2 strain: 0.7
[4]; [5]
  IC50: 6.6 ± 0.5 nM
